Data from US9221838B2, “Inhibitors of AKT activity” (ALMAC DISCOVERY LIMITED, priority 2009, dated 2015).

How the values were obtained:
Type in all cases: biochemical
AKT2 = target: T1, AKT2 (Homo sapiens, UniProt P31751); assay: AKT Kinase Assay (IMAP fluorescent polarisation) vs AKT2
T1 construct: purchased SignalChem
Protocol: (§1) Testing of the compounds was performed using an AKT Kinase Assay:
(§2) Activated AKT isoforms 1, 2 and 3 were assayed utilising a 5′ FAM Crosstide (Seq. GRPRTSSFAEG-OH)(SEO ID NO: 1). The extent of kinase phosphorylation was determined by fluorescent polarisation using IMAP progressive binding reagent, which introduces binding beads which allow the reagent to specifically bind to phosphate residues via covalent co-ordination complex bonds.
(§3) iMAP binding solution stops Crosstide/kinase interaction and specifically binds phosphorylated substrates. The degree of phosphorylation is determined by fluorescent polarisation (excitation 485 nm; emission 528 nm) or the reduction in speed of rotation of the excited substrate.
(§4) The following materials were used in the assay: • a) Activated AKT isoforms (SignalChem.) dissolved in Complete Reaction buffer at a pre-determined concentration selected so that the assay was carried out in the linear range. • b) AKT substrate peptide: FAM Crosstide (R7110) Molecular Devices, diluted in complete reaction buffer. • c) iMAP Progressive Screening Express Kit (R8127) Molecular Devices • d) Complete Reaction Buffer containing 0.1% BSA, 10 mM Tris-HCl, 10 mM MgCl2, 0.05% NaN3 and 0.01% phosphate free BSA, 1 mM DTT • e) Progressive Binding Solution containing 75% Buffer A, 25% Buffer B and low volume Binding Reagent which contains the binding entity for the assay • f) ATP diluted in complete reaction buffer • g) Black polystyrene 384 well assay plates (Nunc). • h) Biotek Synergy 4 Hybrid Plate reader.
(§5) 5 μl of test compound was dissolved in DMSO (Sigma Aldrich) and serially diluted in complete reaction buffer to give a fourteen point half log dose response and plated into 384 well black plates. The compound was incubated at room temperature with activated AKT isoform ([…] ) at the pre-determined concentration, for 45 minutes.
(§6) 2.5 μl of ATP solution mixed with 2.5 μl of AKT substrate peptide (FAM Crosstide (R7110) Molecular Devices) were dispensed into each well and the plate centrifuged at 1000 rpm for 20 seconds to ensure homogenous mixing of reagents. The reaction mix was incubated in the dark for one hour at room temperature.
(§7) The kinase reaction was stopped by the addition of Progressive Binding Solution and the mixture allowed to equilibrate for one hour in the dark, at room temperature.
(§8) The fluorescent polarisation generated in each well was determined using a […] Synergy 4 Hybrid plate reader. In brief, each reaction solution was excited at 485 nm with the emission measured at 528 nm in both the parallel and perpendicular pathway.
(§9) The polarisation value generated in each well was calculated by Gen5 software (Biotek) and the % inhibition of kinase activity compared to vehicle control was calculated via GraphPad Prism. IC50 values for each compound were calculated by non-linear regression analysis using Prism software.
(§10) All plates were internally controlled by two methods. Firstly, by calculating the signal:noise ratio; based on kinase polarisation without inhibitor and polarisation generated by complete reaction buffer in the absence of activated kinase. Secondly by determining IC50 values generated by known inhibitors of the AKT isoforms.

AKT3 = target: T2, AKT3 (Homo sapiens, UniProt Q9Y243); assay: AKT Kinase Assay (IMAP fluorescent polarisation) vs AKT3
T2 construct: purchased SignalChem
T2 sequence (Q9Y243 whole entry): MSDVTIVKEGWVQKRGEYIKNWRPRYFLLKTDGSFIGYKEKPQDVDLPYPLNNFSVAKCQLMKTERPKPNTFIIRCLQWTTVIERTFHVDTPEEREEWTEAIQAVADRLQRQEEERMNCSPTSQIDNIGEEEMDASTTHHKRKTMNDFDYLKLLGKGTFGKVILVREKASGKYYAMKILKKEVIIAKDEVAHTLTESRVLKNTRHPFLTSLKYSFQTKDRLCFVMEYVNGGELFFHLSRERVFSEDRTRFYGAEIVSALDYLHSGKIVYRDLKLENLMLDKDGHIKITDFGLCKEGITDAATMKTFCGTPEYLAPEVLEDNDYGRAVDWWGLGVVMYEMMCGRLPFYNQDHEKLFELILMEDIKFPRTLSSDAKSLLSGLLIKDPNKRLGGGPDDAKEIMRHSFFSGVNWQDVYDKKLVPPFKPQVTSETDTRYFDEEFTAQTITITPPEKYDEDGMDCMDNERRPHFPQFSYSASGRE
Protocol: as §1, §2, §3, §4, §5, §6, §7, §8, §9, §10

AKT1 = target: T3, AKT1 (Homo sapiens, UniProt P31749); assay: AKT Kinase Assay (IMAP fluorescent polarisation) vs AKT1
T3 construct: purchased SignalChem
T3 sequence (P31749 whole entry): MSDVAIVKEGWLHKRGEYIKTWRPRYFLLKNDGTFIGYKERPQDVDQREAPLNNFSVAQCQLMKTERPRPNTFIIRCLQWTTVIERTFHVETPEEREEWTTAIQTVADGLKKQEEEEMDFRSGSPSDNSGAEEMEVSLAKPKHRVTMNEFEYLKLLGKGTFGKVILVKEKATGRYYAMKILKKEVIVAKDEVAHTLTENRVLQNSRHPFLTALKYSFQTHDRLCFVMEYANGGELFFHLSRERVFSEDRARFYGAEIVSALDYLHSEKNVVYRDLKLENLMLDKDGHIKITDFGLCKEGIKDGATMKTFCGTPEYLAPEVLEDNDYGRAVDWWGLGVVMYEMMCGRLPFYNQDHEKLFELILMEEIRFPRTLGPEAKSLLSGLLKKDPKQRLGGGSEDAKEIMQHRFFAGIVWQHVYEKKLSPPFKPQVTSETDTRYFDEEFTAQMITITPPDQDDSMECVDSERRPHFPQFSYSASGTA
Protocol: as §1, §2, §3, §4, §5, §6, §7, §8, §9, §10

T1 sequence (P31751 whole entry): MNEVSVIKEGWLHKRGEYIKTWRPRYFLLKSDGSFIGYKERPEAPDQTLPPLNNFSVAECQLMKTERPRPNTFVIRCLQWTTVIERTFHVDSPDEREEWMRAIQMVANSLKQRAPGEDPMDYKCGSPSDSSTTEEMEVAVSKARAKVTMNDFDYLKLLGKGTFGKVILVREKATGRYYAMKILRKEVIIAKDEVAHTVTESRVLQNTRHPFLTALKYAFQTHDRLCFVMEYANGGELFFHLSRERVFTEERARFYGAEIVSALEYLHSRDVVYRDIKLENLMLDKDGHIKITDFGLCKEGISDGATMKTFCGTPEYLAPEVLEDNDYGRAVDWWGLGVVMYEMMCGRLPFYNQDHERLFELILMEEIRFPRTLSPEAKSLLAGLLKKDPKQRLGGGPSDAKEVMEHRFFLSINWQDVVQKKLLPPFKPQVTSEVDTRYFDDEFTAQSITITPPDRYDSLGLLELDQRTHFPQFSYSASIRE

IC50 (AKT2)	IC50 (AKT3)	IC50 (AKT1)	Compound
100 to 1000 nM	> 10000 nM	100 to 1000 nM	CC1Oc2nc(-c3ccc(C4(N)CCC4)cc3)c(-c3ccccc3)cc2NC1=O (stereo not drawn) [Example 80, 6-(4-(1-aminocyclobutyl)phenyl)-3-methyl-7-phenyl-1H-pyrido[2,3-b][1,4]oxazin-2(3H)-one]
1000 to 10000 nM	1000 to 10000 nM	100 to 1000 nM	CN1C(=O)COc2nc(-c3ccc(C4(N)CCC4)cc3)c(-c3ccsc3)cc21 [Example 125, 6-(4-(1-aminocyclobutyl)phenyl)-1-methyl-7-(thiophen-3-yl)-1H-pyrido[2,3-b][1,4]oxazin-2(3H)-one]
≤ 100 nM	100 to 1000 nM	≤ 100 nM	NC1(c2ccc(-c3nc4c(cc3-c3ccccc3)N(CCF)C(=O)N(CCF)C4)cc2)CCC1 [Example 109, 6-(4-(1-aminocyclobutyl)phenyl)-1,3-bis(2-fluoroethyl)-7-phenyl-3,4-dihydropyrido[3,2-d]pyrimidin-2(1H)-one]
100 to 1000 nM	1000 to 10000 nM	≤ 100 nM	CCc1nnc2n1-c1cc(-c3ccccc3)c(-c3ccc(C4(N)CCC4)cc3)nc1OC2 [Example 47, 1-(4-(1-ethyl-8-phenyl-4H-pyrido[2,3-b][1,2,4]triazolo[4,3-d][1,4]oxazin-7-yl)phenyl)cyclobutanamine]
100 to 1000 nM	> 10000 nM	100 to 1000 nM	CC1(C)Cc2nc(-c3ccc(C4(N)CCC4)cc3)c(-c3ccccc3)cc2-c2n[nH]cc21 [Example 19, 1-(4-(4,4-dimethyl-8-phenyl-4,5-dihydro-2H-pyrazolo[3,4-f]quinolin-7-yl)phenyl)cyclobutanamine]
1000 to 10000 nM	1000 to 10000 nM	1000 to 10000 nM	NC1(c2ccc(-c3nc4c(cc3-c3ccccc3)NC(=O)CO4)cc2)CCC1 [Example 30, 6-(4-(1-aminocyclobutyl)phenyl)-7-phenyl-1H-pyrido[2,3-b][1,4]oxazin-2(3H)-one]
100 to 1000 nM	100 to 1000 nM	≤ 100 nM	NC1(c2ccc(-c3nc4c(cc3-c3ccccc3)-n3c(nnc3C(F)F)CO4)cc2)CCC1 [Example 98, 1-(4-(1-(difluoromethyl)-8-phenyl-4H-pyrido[2,3-b][1,2,4]triazolo[4,3-d][1,4]oxazin-7-yl)phenyl)cyclobutanamine]
1000 to 10000 nM	1000 to 10000 nM	100 to 1000 nM	Cc1nc2c(n1O)CCc1nc(-c3ccc(C4(N)CCC4)cc3)c(-c3ccccc3)cc1-2 [Example 14, 7-(4-(1-aminocyclobutyl)phenyl)-2-methyl-8-phenyl-4,5-dihydro-3H-imidazo[4,5-f]quinolin-3-ol]

Further lines, the molecule ahead of its results:

Compound	IC50 (AKT2)	IC50 (AKT3)	IC50 (AKT1)
Cc1nc2c([nH]1)CCc1nc(-c3ccc(C4(N)CCC4)cc3)c(-c3ccccc3)cc1-2 [Example 15, 1-(4-(2-methyl-8-phenyl-4,5-dihydro-3H-imidazo[4,5-f]quinolin-7-yl)phenyl)cyclobutanamine]	1000 to 10000 nM	1000 to 10000 nM	100 to 1000 nM
CN1C(=O)COc2nc(-c3ccc([C@]4(N)C[C@H](O)C4)cc3)c(-c3ccccc3)cc21 [Example 137, 6-(4-((1r,3r)-1-amino-3-hydroxycyclobutyl)phenyl)-1-methyl-7-phenyl-1H-pyrido[2,3-b][1,4]oxazin-2(3H)-one]	100 to 1000 nM	1000 to 10000 nM	≤ 100 nM
NC1(c2ccc(-c3nc4c(cc3-c3ccccc3)N(CC(F)(F)F)C(=O)CO4)cc2)CCC1 [Example 60, 6-(4-(1-aminocyclobutyl)phenyl)-7-phenyl-1-(2,2,2-trifluoroethyl)-1H-pyrido[2,3-b][1,4]oxazin-2(3H)-one]	≤ 100 nM	1000 to 10000 nM	100 to 1000 nM
N#CCCCCN1C(=O)COc2nc(-c3ccc(C4(N)CCC4)cc3)c(-c3ccccc3)cc21 [Example 66, 5-(6-(4-(1-aminocyclobutyl)phenyl)-2-oxo-7-phenyl-2,3-dihydro-1H-pyrido[2,3-b][1,4]oxazin-1-yl)pentanenitrile]	100 to 1000 nM	1000 to 10000 nM	100 to 1000 nM
CC(C)c1nnc2n1-c1cc(-c3ccccc3)c(-c3ccc(C4(N)CCC4)cc3)nc1OC2 [Example 112, 1-(4-(1-isopropyl-8-phenyl-4H-pyrido[2,3-b][1,2,4]triazolo[4,3-d][1,4]oxazin-7-yl)phenyl)cyclobutanamine]	1000 to 10000 nM	1000 to 10000 nM	100 to 1000 nM
CC1Oc2nc(-c3ccc(C4(N)CCC4)cc3)c(-c3ccccc3)cc2N(C)C1=O (stereo not drawn) [Example 84, 6-(4-(1-aminocyclobutyl)phenyl)-1,3-dimethyl-7-phenyl-1H-pyrido[2,3-b][1,4]oxazin-2(3H)-one]	1000 to 10000 nM	1000 to 10000 nM	100 to 1000 nM
NC1(c2ccc(-c3nc4c(cc3-c3ccccc3)-n3c(nnc3C(F)(F)F)CO4)cc2)CCC1 [Example 100, 1-(4-(8-phenyl-1-(trifluoromethyl)-4H-pyrido[2,3-b][1,2,4]triazolo[4,3-d][1,4]oxazin-7-yl)phenyl)cyclobutanamine]	1000 to 10000 nM	1000 to 10000 nM	100 to 1000 nM
N#CCN1C(=O)COc2nc(-c3ccc(C4(N)CCC4)cc3)c(-c3ccccc3)cc21 [Example 33, 2-(6-(4-(1-aminocyclobutyl)phenyl)-2-oxo-7-phenyl-2,3-dihydro-1H-pyrido[2,3-b][1,4]oxazin-1-yl)acetonitrile]	≤ 100 nM	100 to 1000 nM	≤ 100 nM
N[C@]1(c2ccc(-c3nc4c(cc3-c3ccccc3)-n3c(n[nH]c3=O)CO4)cc2)C[C@H](O)C1 [Example 141, 7-(4-((1s,3s)-1-amino-3-hydroxycyclobutyl)phenyl)-8-phenyl-2,4-dihydro-1H-pyrido[2,3-b][1,2,4]triazolo[4,3-d][1,4]oxazin-1-one]	100 to 1000 nM	100 to 1000 nM	100 to 1000 nM
CS(=O)(=O)CN1C(=O)COc2nc(-c3ccc(C4(N)CCC4)cc3)c(-c3ccccc3)cc21 [Example 82, 6-(4-(1-aminocyclobutyl)phenyl)-1-(methylsulfonylmethyl)-7-phenyl-1H-pyrido[2,3-b][1,4]oxazin-2(3H)-one]	≤ 100 nM	1000 to 10000 nM	1000 to 10000 nM
NC1(c2ccc(-c3nc4c(cc3-c3ccccc3)N(c3cccnc3)S(=O)(=O)CO4)cc2)CCC1 [Example 74, 6-(4-(1-aminocyclobutyl)phenyl)-7-phenyl-1-(pyridin-3-yl)-1H-pyrido[3,2-e][1,3,4]oxathiazine 2,2-dioxide]	1000 to 10000 nM	> 10000 nM	1000 to 10000 nM
NC(=O)c1nnc2n1-c1cc(-c3ccccc3)c(-c3ccc(C4(N)CCC4)cc3)nc1OC2 [Example 119, 7-(4-(1-aminocyclobutyl)phenyl)-8-phenyl-4H-pyrido[2,3-b][1,2,4]triazolo[4,3-d][1,4]oxazine-1-carboxamide]	100 to 1000 nM	1000 to 10000 nM	100 to 1000 nM
NC1(c2ccc(-c3nc4c(cc3-c3ccccc3)N(Cc3ncc[nH]3)C(=O)CO4)cc2)CCC1 [Example 42, 1-((1H-imidazol-2-yl)methyl)-6-(4-(1-aminocyclobutyl)phenyl)-7-phenyl-1H-pyrido[2,3-b][1,4]oxazin-2(3H)-one]	100 to 1000 nM	1000 to 10000 nM	1000 to 10000 nM
CCCc1nnc2n1-c1cc(-c3ccccc3)c(-c3ccc(C4(N)CCC4)cc3)nc1OC2 [Example 69, 1-(4-(8-phenyl-1-propyl-4H-pyrido[2,3-b][1,2,4]triazolo[4,3-d][1,4]oxazin-7-yl)phenyl)cyclobutanamine]	100 to 1000 nM	1000 to 10000 nM	≤ 100 nM
